Laboratory results reported in patent US5053338A, “Kinetic resolution of pyridazinones using lipase” (Glaxo Inc., priority 1990, dated 1991).

Key:
rat aorta [1] = experiment: Rat Aorta Protocol (relaxation of phenylephrine-contracted rat aorta rings); format: cell-based; conditions: phenylephrine 1×10^-7 M, methylene blue and propranolol present, endothelium removed, read-out: IC50 (concentration producing a relaxation equivalent to 50% of the maximal relaxation induced by nitroprusside)
Method: Such vasorelaxation appears to be related to inhibition of the phosphodiesterase (PDE) isozyme related to the cardiac sarcoplasmic reticulum. Thus, relaxation of rat aorta can be used as a screen to eliminate compounds which are not PDE inhibitors prior to testing for actual inotropic activity.
Rings of rat aorta (endothelium removed) were prepared for the measurement of isometric force in isolated tissue organ chambers essentially as previously described by T. J. Rimele et al in the Journal of Pharmacol. Exp. Ther. 245:102-111 (1988). The experimental portion of the protocol began with the addition of methylene blue (1×10^-5 M) and propranolol (1×10^-6 M) to each organ chamber to inhibit basal cGMP accumulation due to soluble guanylate cyclase and beta-adrenoceptors.Phenylephrine (1×10^-7 M) was then added and the rings were allowed to obtain a stable contractile response after which time, the test compound was added in a cumulative fashion. The relaxation induced by each concentration of the test compound was expressed as a percentage of the maximal relaxation produced by nitroprusside (1×10^-4 M) The results were graphically represented as a plot of the percentage relaxation vs. the negative log of the molar concentration of the test compound. […]

[2] = tested on: anesthetized dogs (left ventricular dP/dt); experiment: Anesthetized Dog: inotropic effect (increase in baseline dP/dt); format: in vivo; conditions: infusion of atenolol
Method: Inotropic effects were evaluated in barbiturate-anesthetized dogs by differentiating left intraventricular pressure. This procedure was carried out essentially as described by M. K. Grizzel et al in the FASEB Journal, Vol. 3, page 1039, abstract 4728 (1989). […] Cardiac output was determined via thermodilution with a Spectramed computer (Starcom, Oxnard, Calif.) and a 5F Swan Ganz catheter which was inserted into the right jugular vein and positioned in the pulmonary artery. […] A lead II electrocardiogram was measured using subcutaneous electrodes. […] Rectal temperature was monitored and maintained at 37°-38° C. with a heating pad (Baxter Health Care model K20, McGaw Park, Ill.). All variables were recorded using a Gould 3800S physiograph.
Isoproterenol ([…]) was injected i.v. into the cephalic vein at 10 min intervals except for when the test drug infusion was begun. […] Inhibition of the isoproterenol responses on contractibility (dP/dt), heart rate and diastolic blood pressure were determined at each dose of test compound. The inotropic effect of each compound was determined by comparing the level of dP/dt at the end of each 10 min period to that of the level of dP/dt just prior to the infusion of test compound. […]

rat aorta [3] = conditions: R. F. Kauffman et al., J. Pharmacol. Exp. Ther. 242:864-872 (1987); cited from earlier work

Row | IC50 (rat aorta [1]) [nM] | Compound | effect of atenolol on the inotropic effects [2] | relaxation of rat aorta (rat aorta [3])
1 | 340 | O=C(COc1ccc(C2=NNC(=O)CC2)cc1Cl)NCCNC[C@H](O)COc1ccccc1 [Example 19, 6-{4-[N-[2-[3-phenoxy-2-hydroxypropylamino]ethyl]carbamoylmethoxy]-3-chlorophenyl}-4,5-dihydro-3(2H)-pyridazinone] | not blocked by atenolol | –
2 | – | CSc1ccc(C(=O)c2[nH]c(=O)[nH]c2C)cc1 [enoximone] | – | marked relaxation
3 | – | Cc1[nH]c(=O)c(C#N)cc1-c1ccncc1 [milrinone] | – | marked relaxation
